Laboratory results as given in patent US20230355605A1, “DRUG FOR ENHANCING FIBRINOLYTIC SYSTEM, AND USE THEREFOR” (priority 2020, published 2023).

Legend:
[1] = test system: cynomolgus monkey model of saphenous arterial thrombus; test: Cynomolgus monkey model of saphenous arterial thrombus (PIT model); format: in vivo; settings: oral administration to monkeys
Protocol: The thrombus formation inhibitory effect of the present compound was evaluated using a cynomolgus monkey model of saphenous arterial thrombus (PIT model) .
Before the procedure, the present compound suspended in a 0.5% CMC-Na aqueous solution was orally administered to test groups of cynomolgus monkeys at dosages of 0.1, 0.3, 1, and 3 mg/kg. […] A light irradiation probe was placed on a saphenous artery of each cynomolgus monkey to cause thrombus formation by applying green light of 540 nm for 20 minutes at the time of intravenously administering rose bengal (20 mg/kg). A decrease in blood flow due to this thrombus formation was measured with a pulse Doppler blood flowmeter, and the thrombus formation inhibitory effect of the present compound was evaluated by measuring the occlusion time on the first day and the cumulative occlusion time.

rats = test: 4-week repeated oral dose toxicity study in rats; format: in vivo; settings: rats; study details of the similar compound not given
[2] = test system: mouse model of bleomycin-induced pulmonary fibrosis; test: Mouse model of bleomycin-induced pulmonary fibrosis; format: in vivo
Protocol: The improvement effect of the present compound on pulmonary fibrosis (remodeling after lung damage) was evaluated using a mouse model of bleomycin-induced pulmonary fibrosis. […] Because of similarity of histopathological changes to pulmonary fibrosis in humans, this mouse model is widely used for the evaluation of the drug efficacy.
To a fibrosis mouse model (fibrosis model group) given a single dose of bleomycin (1.2 mg/mL), the present compound (0.75 mg/kg/day) was orally administered for 21 days (present compound administration group, n = 9), and biochemical analysis of the lungs and measurement of clinical conditions of the lungs were performed on day 22. For comparison, instead of the present compound, the solvent used to dissolve the present compound was administered to a fibrosis model group in the same manner (vehicle group, n = 10), and biochemical analysis and measurement of clinical conditions of the lungs were performed. As a positive control group, a dexamethasone administration group (0.25 mg/kg administration, n = 9) was used. The biochemical analysis was performed using lung hydroxyproline values as an index. The clinical conditions of the lungs were evaluated by performing Masson’s trichrome staining and calculating Ashcroft scores according to a report of Ashcroft et al. (Ashcroft T et al., J Clin Pathol, 1988; 41:467). The clinical conditions were confirmed by comparing a normal mouse group (normal group, n = 10) with the vehicle group (n = 10), and the improvement effect of the present compound on pulmonary fibrosis was evaluated by comparing the vehicle group (n = 10) with the present compound administration group (n = 9). Differences between the mean values of the groups were tested by the Bonferroni selected pairs test using Prism 4 (GraphPad Software).
Table 1 and FIG. 3(A) and FIG. 3(B) show the results of comparisons of the lung hydroxyproline values and the Ashcroft scores in the groups. The mean values of the groups are expressed as mean±SD, and examination was performed at a 5% significance level.

CML patients = settings: according to the NCCN guidelines; cited from earlier work
[3] = test system: COVID-19 patients with moderate to severe lung damage; settings: 13 COVID-19 patients, inhaled; cited from earlier work
[4] = day 22, present compound 0.75 mg/kg/day oral 21 days, dexamethasone 0.25 mg/kg, mean±SD

O=C(Nc1ccc(Cl)cc1C(=O)O)c1cccc(-c2ccccc2)c1 [similar compound, 2-([biphenyl-3-ylcarbonyl]amino)-5-chlorobenzoic acid, reference compound]
minimum effective dosage [1]: 0.3 mg/kg | no-observed-adverse-effect level (rats): 20 mg/kg/day

C[C@@H]1C[C@H]2[C@@H]3CCC4=CC(=O)C=C[C@]4(C)[C@@]3(F)[C@@H](O)C[C@]2(C)[C@@]1(O)C(=O)CO [Dexamethazone, dexamethasone, reference compound]
Ashcroft score compared with vehicle group ([2]; 5% significance level): significantly lower | lung hydroxyproline value compared with vehicle group ([2]; 5% significance level): no significant difference | Ashcroft score [2, 4]: 2.3±0.1 | Lung hydroxyproline value [2, 4]: 71.0±6.7 µg/left lung

Cc1ccc(NC(=O)c2ccc(CN3CCN(C)CC3)cc2)cc1Nc1nccc(-c2cccnc2)n1 [imatinib]
patients who could maintain DMR for more than 2 years after 3 years of treatment (CML patients): about 5 % of all CML cases

B1: plasminogen: inhaled plasminogen given to COVID-19 patients in the clinical study by Wu et al. (protein, UniProt P00747 20-810, looked up)
Plasminogen: EPLDDYVNTQGASLFSVTKKQLGAGSIEECAAKCEEDEEFTCRAFQYHSKEQQCVIMAENRKSSIIIRMRDVVLFEKKVYLSECKTGNGKNYRGTMSKTKNGITCQKWSSTSPHRPRFSPATHPSEGLEENYCRNPDNDPQGPWCYTTDPEKRYDYCDILECEEECMHCSGENYDGKISKTMSGLECQAWDSQSPHAHGYIPSKFPNKNLKKNYCRNPDRELRPWCFTTDPNKRWELCDIPRCTTPPPSSGPTYQCLKGTGENYRGNVAVTVSGHTCQHWSAQTPHTHNRTPENFPCKNLDENYCRNPDGKRAPWCHTTNSQVRWEYCKIPSCDSSPVSTEQLAPTAPPELTPVVQDCYHGDGQSYRGTSSTTTTGKKCQSWSSMTPHRHQKTPENYPNAGLTMNYCRNPDADKGPWCFTTDPSVRWEYCNLKKCSGTEASVVAPPPVVLLPDVETPSEEDCMFGNGKGYRGKRATTVTGTPCQDWAAQEPHRHSIFTPETNPRAGLEKNYCRNPDGDVGGPWCYTTNPRKLYDYCDVPQCAAPSFDCGKPQVEPKKCPGRVVGGCVAHPHSWPWQVSLRTRFGMHFCGGTLISPEWVLTAAHCLEKSPRPSSYKVILGAHQEVNLEPHVQEIEVSRLFLEPTRKDIALLKLSSPAVITDKVIPACLPSPNYVVADRTECFITGWGETQGTFGAGLLKEAQLPVIENKVCNRYEFLNGRVQSTELCAGHLAGGTDSCQGDSGGPLVCFEKDKYILQGVTSWGLGCARPNKPGVYVRVSRFVTWIEGVMRNN
lung damage [3]: rapid improvement in lung damage

B2: plasmin: as printed for NPL 27; probably the inhaled plasminogen of b10 (protein, UniProt P00747 20-810, looked up)
Plasminogen: B1 Plasminogen
lung damage [3]: improved
